{
  "source": "ChEMBL document CHEMBL4257535",
  "about": "“Design, synthesis and biological evaluation of AKT inhibitors bearing a piperidin-4-yl appendant” (Medchemcomm, 2018)",
  "key": {"[1]": {"target": "T1, RAC-alpha serine/threonine-protein kinase (Homo sapiens, UniProt P31749)", "T1 sequence (P31749 whole entry)": "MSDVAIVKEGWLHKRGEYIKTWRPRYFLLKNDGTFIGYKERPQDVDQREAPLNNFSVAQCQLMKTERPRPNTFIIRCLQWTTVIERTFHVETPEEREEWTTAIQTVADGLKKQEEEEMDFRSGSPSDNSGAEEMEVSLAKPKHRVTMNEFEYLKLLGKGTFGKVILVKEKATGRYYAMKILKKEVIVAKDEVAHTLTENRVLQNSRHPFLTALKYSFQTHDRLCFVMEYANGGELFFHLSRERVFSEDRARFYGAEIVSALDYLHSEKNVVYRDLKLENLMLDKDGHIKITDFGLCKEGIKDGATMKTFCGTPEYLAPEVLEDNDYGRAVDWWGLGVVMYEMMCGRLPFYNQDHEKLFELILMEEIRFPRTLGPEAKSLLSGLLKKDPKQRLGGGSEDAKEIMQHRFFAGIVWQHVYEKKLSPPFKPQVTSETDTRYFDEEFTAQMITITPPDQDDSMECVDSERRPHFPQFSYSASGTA", "assay": "Inhibition of AKT1 (unknown origin) at 1 uM using biotin-labelled STK as substrate measured after 45 mins by HTRF method relative to control"}, "PC-3 [2]": {"test_system": "PC-3", "assay": "Induction of apoptosis in human PC3 cells assessed as necrotic cells at 10 uM after 48 hrs by Annexin V-FITC/propidium iodide staining based flow cytometry (reference value: 1.48%)", "format": "functional"}, "PC-3 [3]": {"test_system": "PC-3", "assay": "Induction of apoptosis in human PC3 cells assessed as early apoptotic cells at 5 uM after 48 hrs by Annexin V-FITC/propidium iodide staining based flow cytometry (reference value: 1.05%)", "format": "functional"}, "[4]": {"target": "Protein kinase C alpha type (Homo sapiens) (UniProt P17252)", "assay": "Inhibition of PKCalpha (unknown origin) at 1 uM after 40 mins by scintillation counting method relative to control"}, "in vitro [5]": {"assay": "in vitro", "design": "dose or concentration left out as unconfirmed", "conditions": "human, liver microsomes", "description": "Stability in human liver microsomes assessed as parent compound remaining at 10 mM preincubated for 10 mins followed by NADPH addition and measured after 60 mins by LC-MS analysis"}, "[6]": {"target": "T1, RAC-alpha serine/threonine-protein kinase", "assay": "Inhibition of AKT1 (unknown origin) using biotin-labelled STK as substrate measured after 45 mins by HTRF method"}, "PC-3 [7]": {"test_system": "PC-3", "assay": "Antiproliferative activity against human PC3 cells after 72 hrs by MTT assay", "format": "functional, cell-based", "conditions": "PC-3, 72 h"}, "[8]": {"target": "T2, Serine/threonine-protein kinase Chk1 (Homo sapiens) (UniProt O14757)", "T2 sequence (whole entry)": "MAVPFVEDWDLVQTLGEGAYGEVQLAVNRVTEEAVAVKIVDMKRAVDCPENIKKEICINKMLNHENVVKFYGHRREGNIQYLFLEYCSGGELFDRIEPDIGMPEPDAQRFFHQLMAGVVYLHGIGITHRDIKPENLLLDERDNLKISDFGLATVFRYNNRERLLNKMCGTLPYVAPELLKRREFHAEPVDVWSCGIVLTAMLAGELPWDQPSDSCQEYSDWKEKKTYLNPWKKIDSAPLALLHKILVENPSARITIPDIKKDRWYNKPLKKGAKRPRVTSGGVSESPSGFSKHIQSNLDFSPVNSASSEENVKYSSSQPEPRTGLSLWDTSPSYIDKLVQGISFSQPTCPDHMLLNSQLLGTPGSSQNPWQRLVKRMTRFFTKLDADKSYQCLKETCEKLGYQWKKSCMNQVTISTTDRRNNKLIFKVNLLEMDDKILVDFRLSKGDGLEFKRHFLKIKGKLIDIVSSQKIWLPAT", "assay": "Inhibition of CHK1 (unknown origin) at 1 uM after 40 mins by scintillation counting method relative to control"}, "PC-3 [9]": {"test_system": "PC-3", "assay": "Induction of apoptosis in human PC3 cells assessed as early apoptotic cells at 10 uM after 48 hrs by Annexin V-FITC/propidium iodide staining based flow cytometry (reference value: 1.05%)", "format": "functional"}, "[10]": {"target": "T1, RAC-alpha serine/threonine-protein kinase", "assay": "Inhibition of AKT phosphorylation in human PC3 cells at 1 to 10 uM after 4 hrs by Western blot analysis", "format": "cell-based"}, "PC-3 [11]": {"test_system": "PC-3", "assay": "Induction of apoptosis in human PC3 cells assessed as early apoptotic cells at 1 uM after 48 hrs by Annexin V-FITC/propidium iodide staining based flow cytometry (reference value: 1.05%)", "format": "functional"}, "PC-3 [12]": {"test_system": "PC-3", "assay": "Induction of apoptosis in human PC3 cells assessed as late apoptotic cells at 1 uM after 48 hrs by Annexin V-FITC/propidium iodide staining based flow cytometry (reference value: 0.27%)", "format": "functional"}, "PC-3 [13]": {"test_system": "PC-3", "assay": "Induction of apoptosis in human PC3 cells assessed as late apoptotic cells at 10 uM after 48 hrs by Annexin V-FITC/propidium iodide staining based flow cytometry (reference value: 0.27%)", "format": "functional"}, "[14]": {"target": "Ribosomal protein S6 kinase alpha-1 (Homo sapiens) (UniProt Q15418)", "sequence (Q15418 whole entry)": "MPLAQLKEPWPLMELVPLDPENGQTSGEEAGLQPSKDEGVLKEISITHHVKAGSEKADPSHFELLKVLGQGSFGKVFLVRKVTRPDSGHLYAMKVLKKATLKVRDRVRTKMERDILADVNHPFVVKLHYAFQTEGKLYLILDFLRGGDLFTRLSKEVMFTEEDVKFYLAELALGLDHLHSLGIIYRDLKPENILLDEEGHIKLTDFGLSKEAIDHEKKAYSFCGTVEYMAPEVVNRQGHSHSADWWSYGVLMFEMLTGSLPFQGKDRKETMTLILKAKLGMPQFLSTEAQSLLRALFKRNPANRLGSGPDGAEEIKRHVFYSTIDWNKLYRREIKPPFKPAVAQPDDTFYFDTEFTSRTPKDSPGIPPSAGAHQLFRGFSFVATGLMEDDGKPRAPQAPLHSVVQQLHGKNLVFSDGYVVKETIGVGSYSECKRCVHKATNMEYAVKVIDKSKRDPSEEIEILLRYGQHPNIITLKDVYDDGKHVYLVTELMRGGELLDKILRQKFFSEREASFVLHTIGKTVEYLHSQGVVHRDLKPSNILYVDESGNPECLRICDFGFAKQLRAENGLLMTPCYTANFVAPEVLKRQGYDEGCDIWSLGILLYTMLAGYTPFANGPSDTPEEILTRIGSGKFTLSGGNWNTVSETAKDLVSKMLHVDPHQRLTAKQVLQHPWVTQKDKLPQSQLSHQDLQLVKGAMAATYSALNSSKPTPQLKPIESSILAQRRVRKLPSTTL", "assay": "Inhibition of RSK1 (unknown origin) at 1 uM after 40 mins by scintillation counting method relative to control"}, "[15]": {"target": "Glycogen synthase kinase-3 beta (Homo sapiens) (UniProt P49841)", "sequence (P49841 whole entry, looked up)": "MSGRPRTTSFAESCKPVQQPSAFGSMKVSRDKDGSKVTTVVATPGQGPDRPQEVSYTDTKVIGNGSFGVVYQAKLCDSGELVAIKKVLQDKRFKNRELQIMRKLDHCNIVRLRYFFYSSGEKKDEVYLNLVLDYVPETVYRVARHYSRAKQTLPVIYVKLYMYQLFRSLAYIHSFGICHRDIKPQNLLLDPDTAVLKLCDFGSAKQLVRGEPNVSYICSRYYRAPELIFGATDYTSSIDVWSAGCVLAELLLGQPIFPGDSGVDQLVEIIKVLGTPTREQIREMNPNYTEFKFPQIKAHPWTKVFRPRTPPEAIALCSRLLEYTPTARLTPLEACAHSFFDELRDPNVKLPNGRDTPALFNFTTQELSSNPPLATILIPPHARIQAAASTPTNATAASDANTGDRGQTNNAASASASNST", "assay": "Inhibition of GSK3beta (unknown origin) at 1 uM after 40 mins by scintillation counting method relative to control"}, "[16]": {"target": "Tyrosine-protein kinase ABL1 (Homo sapiens) (UniProt P00519)", "sequence (P00519 whole entry)": "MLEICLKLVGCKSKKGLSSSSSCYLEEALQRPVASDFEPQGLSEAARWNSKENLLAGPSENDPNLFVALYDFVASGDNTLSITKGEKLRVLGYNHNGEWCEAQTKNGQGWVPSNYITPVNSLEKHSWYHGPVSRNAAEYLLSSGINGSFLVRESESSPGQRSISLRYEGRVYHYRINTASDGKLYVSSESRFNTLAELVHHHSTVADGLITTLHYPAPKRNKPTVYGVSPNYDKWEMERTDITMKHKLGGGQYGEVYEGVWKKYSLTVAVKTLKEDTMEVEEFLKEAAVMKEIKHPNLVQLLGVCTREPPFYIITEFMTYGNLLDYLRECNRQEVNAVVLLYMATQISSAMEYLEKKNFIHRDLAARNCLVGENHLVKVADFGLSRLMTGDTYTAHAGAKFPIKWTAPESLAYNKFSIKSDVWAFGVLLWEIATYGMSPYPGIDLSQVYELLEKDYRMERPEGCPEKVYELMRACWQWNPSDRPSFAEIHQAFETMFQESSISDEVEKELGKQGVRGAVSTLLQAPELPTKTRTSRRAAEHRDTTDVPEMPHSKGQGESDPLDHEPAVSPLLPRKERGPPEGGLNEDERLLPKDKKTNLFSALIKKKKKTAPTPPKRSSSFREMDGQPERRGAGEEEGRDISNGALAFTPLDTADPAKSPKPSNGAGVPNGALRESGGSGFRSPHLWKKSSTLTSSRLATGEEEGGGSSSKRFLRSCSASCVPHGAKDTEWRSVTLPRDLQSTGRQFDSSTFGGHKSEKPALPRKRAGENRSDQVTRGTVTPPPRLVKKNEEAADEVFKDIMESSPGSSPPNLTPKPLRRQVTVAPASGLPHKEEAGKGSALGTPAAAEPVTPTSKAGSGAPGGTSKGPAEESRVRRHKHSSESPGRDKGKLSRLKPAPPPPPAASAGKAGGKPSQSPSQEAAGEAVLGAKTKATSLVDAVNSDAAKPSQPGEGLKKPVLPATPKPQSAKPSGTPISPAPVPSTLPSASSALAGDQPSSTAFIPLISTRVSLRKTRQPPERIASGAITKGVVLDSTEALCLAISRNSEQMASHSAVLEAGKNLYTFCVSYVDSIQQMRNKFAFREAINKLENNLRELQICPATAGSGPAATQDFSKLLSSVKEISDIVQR", "assay": "Inhibition of ABL (unknown origin) at 1 uM after 40 mins by scintillation counting method relative to control"}, "in vitro [17]": {"assay": "in vitro", "design": "dose or concentration left out as unconfirmed", "conditions": "human, liver microsomes", "remark": "listed apart in the source", "description": "Intrinsic clearance in human liver microsomes at 10 mM preincubated for 10 mins followed by NADPH addition and measured after 5 to 60 mins by LC-MS analysis"}, "[18]": {"target": "Tyrosine-protein kinase JAK1 (Homo sapiens) (UniProt P23458)", "sequence (P23458 whole entry)": "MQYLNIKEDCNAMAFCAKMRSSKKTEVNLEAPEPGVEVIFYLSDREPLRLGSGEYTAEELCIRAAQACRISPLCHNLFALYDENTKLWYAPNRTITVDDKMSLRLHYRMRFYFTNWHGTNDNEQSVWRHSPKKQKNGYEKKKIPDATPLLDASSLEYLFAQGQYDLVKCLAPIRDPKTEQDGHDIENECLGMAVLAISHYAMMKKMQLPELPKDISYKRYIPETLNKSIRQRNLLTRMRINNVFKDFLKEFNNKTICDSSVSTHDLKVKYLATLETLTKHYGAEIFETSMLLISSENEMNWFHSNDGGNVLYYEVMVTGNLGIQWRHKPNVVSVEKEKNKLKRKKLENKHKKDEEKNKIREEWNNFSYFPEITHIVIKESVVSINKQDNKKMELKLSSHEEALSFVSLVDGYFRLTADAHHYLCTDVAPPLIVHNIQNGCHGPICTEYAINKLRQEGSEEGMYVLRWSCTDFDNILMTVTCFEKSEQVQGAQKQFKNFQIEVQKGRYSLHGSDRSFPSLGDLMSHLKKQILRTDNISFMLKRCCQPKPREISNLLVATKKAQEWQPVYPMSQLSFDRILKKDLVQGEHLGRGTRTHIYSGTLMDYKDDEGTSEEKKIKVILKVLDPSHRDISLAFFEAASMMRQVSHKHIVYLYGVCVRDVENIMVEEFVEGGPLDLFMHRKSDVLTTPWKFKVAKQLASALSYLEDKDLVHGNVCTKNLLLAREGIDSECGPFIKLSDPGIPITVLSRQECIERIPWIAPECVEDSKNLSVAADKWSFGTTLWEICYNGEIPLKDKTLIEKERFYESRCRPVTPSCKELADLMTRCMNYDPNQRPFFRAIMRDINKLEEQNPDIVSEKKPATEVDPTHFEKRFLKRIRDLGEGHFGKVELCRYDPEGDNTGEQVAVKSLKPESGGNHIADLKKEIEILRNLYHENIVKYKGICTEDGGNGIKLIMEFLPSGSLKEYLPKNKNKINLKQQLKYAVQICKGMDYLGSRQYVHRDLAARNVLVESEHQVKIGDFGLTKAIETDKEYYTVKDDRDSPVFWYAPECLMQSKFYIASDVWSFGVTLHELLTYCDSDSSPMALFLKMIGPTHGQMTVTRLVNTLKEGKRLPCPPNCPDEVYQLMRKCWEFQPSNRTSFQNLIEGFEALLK", "assay": "Inhibition of JAK1 (unknown origin) at 1 uM after 40 mins by scintillation counting method relative to control"}, "[19]": {"target": "Rho-associated protein kinase 1 (Homo sapiens) (UniProt Q13464)", "assay": "Inhibition of ROCK1 (unknown origin) at 1 uM after 40 mins by scintillation counting method relative to control"}, "[20]": {"target": "T1, RAC-alpha serine/threonine-protein kinase", "assay": "Inhibition of AKT in human PC3 cells assessed as reduction in GSK3beta phosphorylation at 1 to 10 uM after 4 hrs by Western blot analysis", "format": "cell-based"}, "[21]": {"target": "T3, 3-phosphoinositide-dependent protein kinase 1 (Homo sapiens) (UniProt O15530)", "T3 sequence (whole entry)": "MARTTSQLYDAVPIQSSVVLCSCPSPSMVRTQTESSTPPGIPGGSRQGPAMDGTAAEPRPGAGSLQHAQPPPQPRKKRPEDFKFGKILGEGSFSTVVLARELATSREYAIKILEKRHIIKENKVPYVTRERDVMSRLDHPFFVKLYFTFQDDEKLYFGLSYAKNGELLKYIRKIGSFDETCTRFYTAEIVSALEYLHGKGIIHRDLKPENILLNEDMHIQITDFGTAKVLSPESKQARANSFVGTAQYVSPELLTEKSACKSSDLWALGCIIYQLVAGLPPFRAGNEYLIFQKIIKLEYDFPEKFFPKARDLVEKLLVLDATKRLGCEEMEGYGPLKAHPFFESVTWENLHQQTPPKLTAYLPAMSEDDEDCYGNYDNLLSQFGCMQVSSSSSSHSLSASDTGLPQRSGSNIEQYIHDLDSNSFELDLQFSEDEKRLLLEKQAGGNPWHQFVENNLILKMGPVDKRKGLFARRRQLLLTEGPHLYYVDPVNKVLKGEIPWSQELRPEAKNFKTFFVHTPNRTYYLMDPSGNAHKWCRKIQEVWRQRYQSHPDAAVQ", "assay": "Inhibition of PDK1 (unknown origin) at 1 uM after 40 mins by scintillation counting method relative to control"}, "PC-3 [22]": {"test_system": "PC-3", "assay": "Induction of apoptosis in human PC3 cells assessed as necrotic cells at 1 uM after 48 hrs by Annexin V-FITC/propidium iodide staining based flow cytometry (reference value: 1.48%)", "format": "functional"}, "[23]": {"target": "T1, RAC-alpha serine/threonine-protein kinase", "assay": "Inhibition of AKT1 (unknown origin) at 0.1 uM using biotin-labelled STK as substrate measured after 45 mins by HTRF method relative to control"}},
  "note": "The source made the active and inactive calls. The calls are words filed in the database; no cut-off is given here.",
  "data": [
    {"smiles": "O=C(N1CCN(c2ncnc3[nH]nc(Cl)c23)CC1)C1(c2ccc(Cl)c(Cl)c2)CCNCC1", "values": [
      {"measurement": "inhibition", "setting": "[1]", "result": 94.3, "unit": "%"},
      {"measurement": "Activity", "setting": "PC-3 [2]", "result": 3.24, "unit": "%"},
      {"measurement": "Activity", "setting": "PC-3 [3]", "result": 3.93, "unit": "%"},
      {"measurement": "inhibition", "setting": "[4]", "result": "inactive"},
      {"measurement": "remaining at 1 h", "setting": "in vitro [5]", "result": 81.8, "unit": "%"},
      {"measurement": "IC50", "setting": "[6]", "result": 24.3, "unit": "nM"},
      {"measurement": "IC50", "setting": "PC-3 [7]", "result": 3700, "unit": "nM"},
      {"measurement": "inhibition", "setting": "[8]", "result": "inactive"},
      {"measurement": "Activity", "setting": "PC-3 [9]", "result": 11.23, "unit": "%"},
      {"measurement": "inhibition", "setting": "[10]", "result": "Active"},
      {"measurement": "Activity", "setting": "PC-3 [11]", "result": 2.7, "unit": "%"},
      {"measurement": "Activity", "setting": "PC-3 [12]", "result": 4.82, "unit": "%"},
      {"measurement": "Activity", "setting": "PC-3 [13]", "result": 16.6, "unit": "%"},
      {"measurement": "inhibition", "setting": "[14]", "result": 83, "unit": "%"},
      {"measurement": "inhibition", "setting": "[15]", "result": "inactive"},
      {"measurement": "inhibition", "setting": "[16]", "result": "inactive"},
      {"measurement": "CLint scaled", "setting": "in vitro [17]", "result": "< 8.6", "unit": "mL/min/kg"},
      {"measurement": "microsomal CLint", "setting": "in vitro [17]", "result": "< 9.6", "unit": "µL/min/mg"},
      {"measurement": "inhibition", "setting": "[18]", "result": "inactive"},
      {"measurement": "inhibition", "setting": "[19]", "result": "inactive"},
      {"measurement": "inhibition", "setting": "[20]", "result": "inactive"},
      {"measurement": "inhibition", "setting": "[21]", "result": "inactive"},
      {"measurement": "Activity", "setting": "PC-3 [22]", "result": 2, "unit": "%"},
      {"measurement": "inhibition", "setting": "[23]", "result": 83.7, "unit": "%"}
    ]}
  ]
}
